US10561748B2, “Anthranilic acid derivatives” (priority 2014, dated 2020)
Where two headings read alike, the source gives them in different places.

Tests used:
[1] = molecular target: T1, P-gp (Homo sapiens, UniProt P08183); assay: cell-based
From the text: (§1) • A. Three different cell lines have been employed: MDCK-P-gp (fluorescent probe Calcein-AM), MDCK-BCRP (florescent probe Rhodamine) and MDCK-MRP1 (fluorescent probe Calcein-AM). These cells overexpress stably human P-gp or BCRP or MRP1. • i.

[2] = molecular target: T2, MRP1 (Homo sapiens, UniProt P33527); assay: Activity in MDCK-MRP1 cells, fluorescent probe Calcein-AM; type: cell-based
T2 construct: expressed in transfected cells; host or cells: MDCK-MRP1
T2 sequence (P33527 whole entry): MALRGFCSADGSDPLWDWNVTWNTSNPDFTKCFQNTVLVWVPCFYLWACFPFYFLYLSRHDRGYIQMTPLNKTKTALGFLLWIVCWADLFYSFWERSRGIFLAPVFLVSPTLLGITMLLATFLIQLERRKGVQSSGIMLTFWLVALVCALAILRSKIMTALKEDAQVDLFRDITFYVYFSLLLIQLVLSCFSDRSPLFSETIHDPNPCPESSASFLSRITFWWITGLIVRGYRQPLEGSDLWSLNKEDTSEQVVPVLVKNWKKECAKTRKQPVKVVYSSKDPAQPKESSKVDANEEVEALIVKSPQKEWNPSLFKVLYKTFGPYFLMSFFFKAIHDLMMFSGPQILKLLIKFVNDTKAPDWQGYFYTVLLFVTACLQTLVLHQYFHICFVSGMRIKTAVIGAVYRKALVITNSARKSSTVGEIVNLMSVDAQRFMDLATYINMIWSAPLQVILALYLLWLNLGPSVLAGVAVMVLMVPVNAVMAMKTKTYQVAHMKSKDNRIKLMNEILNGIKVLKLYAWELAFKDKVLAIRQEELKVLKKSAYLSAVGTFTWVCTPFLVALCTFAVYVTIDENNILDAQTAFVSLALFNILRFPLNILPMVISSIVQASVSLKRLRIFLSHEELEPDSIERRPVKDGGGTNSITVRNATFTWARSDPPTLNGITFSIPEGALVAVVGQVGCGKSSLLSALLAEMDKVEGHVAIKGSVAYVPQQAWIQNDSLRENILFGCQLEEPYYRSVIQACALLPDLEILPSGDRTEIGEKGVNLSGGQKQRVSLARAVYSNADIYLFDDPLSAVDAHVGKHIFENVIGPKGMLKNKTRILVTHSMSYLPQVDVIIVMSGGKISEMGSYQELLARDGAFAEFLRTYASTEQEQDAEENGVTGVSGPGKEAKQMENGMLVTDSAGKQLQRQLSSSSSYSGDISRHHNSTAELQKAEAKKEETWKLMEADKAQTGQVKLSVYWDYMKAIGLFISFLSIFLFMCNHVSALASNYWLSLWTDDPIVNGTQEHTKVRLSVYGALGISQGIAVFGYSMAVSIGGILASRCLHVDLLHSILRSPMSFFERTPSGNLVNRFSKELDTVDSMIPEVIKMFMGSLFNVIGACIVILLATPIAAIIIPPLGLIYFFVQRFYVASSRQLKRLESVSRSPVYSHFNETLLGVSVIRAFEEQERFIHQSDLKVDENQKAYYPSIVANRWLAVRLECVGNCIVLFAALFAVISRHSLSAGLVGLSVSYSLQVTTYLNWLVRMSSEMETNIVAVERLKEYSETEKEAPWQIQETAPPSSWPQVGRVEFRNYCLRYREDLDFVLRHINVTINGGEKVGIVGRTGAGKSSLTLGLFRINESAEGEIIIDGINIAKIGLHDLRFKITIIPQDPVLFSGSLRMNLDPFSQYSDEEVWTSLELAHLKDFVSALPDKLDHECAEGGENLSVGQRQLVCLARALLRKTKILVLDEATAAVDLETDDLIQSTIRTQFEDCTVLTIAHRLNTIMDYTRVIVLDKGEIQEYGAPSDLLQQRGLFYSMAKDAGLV
From the text: as §1

[3] = test system: MDCK-MDR1; assay: Cytotoxicity, MTT assay; type: cell-based; conditions: 100 microM
Method: Determination of cell growth was performed using the MTT assay at 24 and 48 h. On day 1, 30,000 cells/well were seeded into96-well plates in a volume of 100 μL. On day 2, the various drugs concentration (0.1-100 μM) were added. In all the experiments, the various drug-solvents (ethanol, DMSO) were added in each control to evaluate a possible solvent cytotoxicity. After the established incubation time with compound of Formula 1a, MTT(0.5 mg/mL) was added to each well, and after 3 h incubation at 37° C., the supernatant was removed.

[4] = molecular target: T3, BCRP (Homo sapiens, UniProt Q9UNQ0); assay: Activity in MDCK-BCRP cells, fluorescent probe Rhodamine; type: cell-based
T3 construct: expressed in transfected cells; host or cells: MDCK-BCRP
T3 sequence (Q9UNQ0 1-655): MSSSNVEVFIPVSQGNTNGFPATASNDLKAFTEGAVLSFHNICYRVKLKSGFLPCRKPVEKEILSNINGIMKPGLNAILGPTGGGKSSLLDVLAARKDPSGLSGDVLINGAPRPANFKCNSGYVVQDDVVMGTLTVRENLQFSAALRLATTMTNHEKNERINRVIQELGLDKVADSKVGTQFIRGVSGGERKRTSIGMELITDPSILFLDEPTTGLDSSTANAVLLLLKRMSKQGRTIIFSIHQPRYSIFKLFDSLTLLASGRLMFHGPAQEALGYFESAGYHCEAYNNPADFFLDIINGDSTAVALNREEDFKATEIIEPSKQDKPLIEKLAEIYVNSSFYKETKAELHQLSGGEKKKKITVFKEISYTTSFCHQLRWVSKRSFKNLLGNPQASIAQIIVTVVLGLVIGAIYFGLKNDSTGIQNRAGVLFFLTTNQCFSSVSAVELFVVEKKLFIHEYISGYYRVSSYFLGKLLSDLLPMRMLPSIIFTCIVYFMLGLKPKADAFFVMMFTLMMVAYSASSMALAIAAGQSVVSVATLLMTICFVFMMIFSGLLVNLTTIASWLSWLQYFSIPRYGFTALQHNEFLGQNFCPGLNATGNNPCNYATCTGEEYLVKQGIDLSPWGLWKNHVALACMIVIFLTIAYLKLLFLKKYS
From the text: as §1

[5] = test system: P-gp; assay: Apparent permeability in Caco-2 cells (BA/AB); type: in vitro ADME; conditions: human, BA/AB >2 = transported by P-gp, read-out: Apparent Permeability (B→A/A→B)
Method: Ligands displaying BA/AB >2 are transported while ligands having BA/AB <2 are not transported by P-gp.
Caco-2 cells were seeded onto a Millicell assay system (Millipore), where a cell monolayer is set in between a filter cell and a receiver plate, at a density of 10,000 cells/well. The culture medium was replaced every 48 h and the cells kept for 21 days in culture. The Trans Epithelial Electrical Resistance (TEER) of the monolayers was measured daily, before and after the experiment, using an epithelial voltohometer (Millicell-ERS). Generally, TEER values greater than 1000× for a 21 day culture, are considered optimal. Caco-2 cells were seeded onto a Millicell assay system (Millipore), where a cell monolayer is set in between a filter cell and a receiver plate, at a density of 10,000 cells/well. The culture medium was replaced every 48 h and the cells kept for 21 days in culture. The Trans Epithelial Electrical Resistance (TEER) of the monolayers was measured daily, before and after the experiment, using an epithelial voltohometer (Millicell-ERS). Generally, TEER values greater than 1000× for a 21 day culture, are considered. After 21 days of Caco-2 cell growth, the medium was removed from filter wells and from the receiver plate, which were filled with fresh MSS buffer (Invitrogen). […] The apparent permeability (Papp), in units of nm/s, was calculated.

[6] = Metabolites (human microsomes), unchanged form; type: in vitro ADME
From the text: Metabolites (Human Microsomes)

[7] = Everted gut sac: crossing to mucosal compartment and stability; type: in vitro ADME
Method: The compound of Formula la has been inserted in serosal compartment of […] and for 120 mins has been tested: • 1. The concentration in mucosal compartment • 2. The stability in serosal/mucosal compartment

[8] = Metabolic stability by rat liver microsomes; type: in vitro ADME
Method: Metabolic stability of compound of Formula la was evaluated by incubating test compounds with rat liver microsomes and monitoring parent disappearance within 30 mins using HPLC.
• Column: KINE IEX-C18 • Column temperature: 40° C. • Mobile phase: Gradient. A was 0.1% formic acid in water. B was MeCN. A:B 95:5 to 30:70 over 10 min, to 20:80 over 5 min. • Flow rate: 0.5 ml/min • Injection volume: 50 μL
FIG. 5 illustrated a Chromatogram of Formula la incubated with microsomes fraction only without NADPH regenerating system wherein 489.88 mAU*s represents ligand concentration after incubation Ccontrol. FIG. 6 illustrates a Chromatogram of compound of Formula 1a incubated in the presence of microsomes and NADPH regenerating system wherein 429.56 mAU*s represents ligand concentration Cparent.

[9] = test system: plasma proteins based on human serum albumin and human α1 acid glycoprotein; assay: Protein Plasma Binding (PPB) assay (TRANSIL); type: in vitro ADME; conditions: read-out: kD (dissociation constant, plasma protein binding)
Method: (§2) Plasma protein binding is measured in terms of the dissociation constant KD: KD=[compound 1a] [P]/[compound 1a-P], wherein [compound 1a-P] is the concentration of compound of Formula 1a bound to the protein P and where [compound 1a] denotes the free concentration of compound of Formula 1a and [P] denotes the free concentration of protein. […] This means there is high free unbound radiotracer available to bind with the target protein for detection.
(§3) fb represents an estimation of the fraction bound to plasma proteins based on human serum albumin and human α1 acid glycoprotein. Binding to other low abundance plasma proteins like lipoproteins, transcortin, and sex hormone binding protein is not considered.
(§4) The TRANSIL Quality Index (TQI) is based on five independent measures derived from the data analysis. For each individual measure a partial quality score on a scale between 0 and 10 is attributed to the estimate. 0 represents lowest quality, while 10 represents highest quality. The final quality index is a weighted average of the partial quality scores.
(§5) Plasma protein binding is measured in terms of the dissociation constant KD: KD=[TQD]

[10] = Protein Plasma Binding (PPB) assay (TRANSIL); type: in vitro ADME, human; conditions: human serum albumin and human α1 acid glycoprotein (TRANSIL); for fraction unbound: estimation based on human serum albumin and human α1 acid glycoprotein, read-out: fb (fraction bound to plasma proteins) (converted); for Kd: human, read-out: kD (dissociation constant, plasma protein binding)
Method: as §2, §3, §4, §5

[11] = molecular target: T1, P-gp; assay: ATP-ase cell depletion (luminescence) in MDCK-MDR1 cells; type: cell-based; design: expressed in transfected cells; host or cells: MDCK-P-gp (MDCK cells stably overexpressing human P-gp); conditions: at 1 μM, 2 h
Method: In order to establish the intrinsic mechanism of compound of Formula la in […] has been defined if it was able to deplete ATP. Compound able to deplete ATP can be considered P-gp substrate while ligand unable to deplete ATP is considered P-gp inhibitor.
The MDCK-MDR1 cells were seeded into 96-well microplate in 100 μL of complete medium at a density 2×10^4 cells/well. The plate was incubated overnight in a humidified atmosphere 5% CO2 at 37° C. The medium was removed and 100 μL of complete medium in the presence or absence of different concentrations of compound of Formula 1a was added. The plate was incubated for 2 h in a humidified atmosphere 5% CO2 at 37° C. Fifty microlitres of mammalian cell lysis solution was added to all wells and the plate was shaken for 5 min in an orbital shaker. Fifty microlitres of substrate solution was added to all wells and the plate was shaken for 5 min in an orbital shaker. The plate was dark adapted for 10 min and the luminescence was measured.

[12] = molecular target: T1, P-gp; design: expressed in transfected cells; host or cells: MDCK-P-gp (MDCK cells stably overexpressing human P-gp); conditions: literature value; read-out: EC50 as reported in Kazunori Kawamura, et al.; cited from earlier work
[13] = test system: P-gp; assay: In vivo bio-distribution, microPET/CT brain uptake; design: species or system mice
Method: A set of wild type mice subjects were injected with compound of formula 1b (i.e. [^18F]-labeled compound of formula 1a). Immediately after injection of the tracer compound, scanning was performed on the subject using a microPET/CT system. The study was conducted in deep anaesthesia (oxygen/1.5-2 isoflurane w/o drug-induction) and the animals were treated by adhering to regulatory, ethical and Animal Welfare guidelines subsequent to obtaining approvals. […] The extraction remained constant for the duration of the study and was indicative of a possible selective binding to brain structures.

T1 sequence (P08183 whole entry): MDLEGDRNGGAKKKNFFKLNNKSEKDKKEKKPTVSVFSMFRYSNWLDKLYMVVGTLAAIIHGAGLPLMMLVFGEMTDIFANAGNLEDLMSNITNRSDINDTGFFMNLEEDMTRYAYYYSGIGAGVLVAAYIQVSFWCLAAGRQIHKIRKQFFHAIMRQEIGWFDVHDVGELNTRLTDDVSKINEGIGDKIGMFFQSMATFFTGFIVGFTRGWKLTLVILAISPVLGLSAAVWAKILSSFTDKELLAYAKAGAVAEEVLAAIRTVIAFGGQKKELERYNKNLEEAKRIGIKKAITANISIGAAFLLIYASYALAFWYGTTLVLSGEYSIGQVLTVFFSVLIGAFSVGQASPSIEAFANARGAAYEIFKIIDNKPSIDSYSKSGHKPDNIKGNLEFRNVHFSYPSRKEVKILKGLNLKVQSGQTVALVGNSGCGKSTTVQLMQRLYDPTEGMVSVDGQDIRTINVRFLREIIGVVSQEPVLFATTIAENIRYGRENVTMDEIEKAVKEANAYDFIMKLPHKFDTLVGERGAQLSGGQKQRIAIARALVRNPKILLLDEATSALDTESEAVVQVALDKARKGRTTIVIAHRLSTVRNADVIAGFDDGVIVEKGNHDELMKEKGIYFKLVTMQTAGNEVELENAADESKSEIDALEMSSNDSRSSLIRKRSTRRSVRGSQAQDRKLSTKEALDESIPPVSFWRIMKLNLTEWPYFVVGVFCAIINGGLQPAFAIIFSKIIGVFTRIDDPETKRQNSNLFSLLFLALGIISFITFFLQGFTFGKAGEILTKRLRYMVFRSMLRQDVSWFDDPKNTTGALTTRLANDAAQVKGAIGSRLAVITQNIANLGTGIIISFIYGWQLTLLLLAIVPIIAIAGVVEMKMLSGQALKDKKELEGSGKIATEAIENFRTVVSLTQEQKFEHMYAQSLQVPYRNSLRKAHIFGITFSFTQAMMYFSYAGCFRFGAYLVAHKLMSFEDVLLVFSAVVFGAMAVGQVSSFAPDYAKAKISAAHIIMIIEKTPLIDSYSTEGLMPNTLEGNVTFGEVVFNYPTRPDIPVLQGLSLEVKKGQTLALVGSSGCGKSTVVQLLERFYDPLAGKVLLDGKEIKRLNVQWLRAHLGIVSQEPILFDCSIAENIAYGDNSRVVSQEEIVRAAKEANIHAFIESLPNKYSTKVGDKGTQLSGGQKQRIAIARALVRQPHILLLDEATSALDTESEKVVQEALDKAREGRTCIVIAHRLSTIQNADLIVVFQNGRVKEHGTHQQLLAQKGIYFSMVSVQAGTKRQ

SMILES: COc1cc(NC(=O)c2cnc3ccccc3c2)c(C(=O)Nc2ccc(CCN3CCc4cc(OCCF)c(OC)cc4C3)cc2)cc1OC [Formula 1a, N-(2-((4-(2-(6-(2-fluoroethoxy)-7-methoxy-3,4-dihydroisoquinolin-2(1H)-yl)ethyl)phenyl)carbamoyl)-4,5-dimethoxyphenyl)quinoline-3-carboxamide]
- EC50 [1]: 0.008 µM
- P-gp EC50 [1]: 8,0±0.2 nM
- EC50 [2]: > 0.5 µM
- Cytotoxicity (MTT) ([3]; 24 h): 5%
- Cytotoxicity (MTT) ([3]; 48 h): 15%
- EC50 [4]: > 0.5 µM
- efflux ratio at 120 min [5]: 16 ± 0.7
- Unchanged form (%) ([6]; after 30 min): 91%
- Unchanged form (%) ([6]; after 60 min): 85%
- Stability in serosal compartment ([7]; after 60 min): 83%
- Stability in serosal compartment ([7]; after 120 min): 75%
- Crossing into the mucosal compartment ([7]; inserted in serosal compartment, 120 mins): unable to cross into the mucosal compartment
- % remaining at 30 min [8]: 88%
- Kd [9]: 717 µM
- fraction unbound [10]: 0.539
- Kd [10]: 717 µM
- ATP-ase cell depletion [11]: 20%

SMILES: COc1cc2c(cc1OC)CN(CCc1ccc(NC(=O)c3cc(OC)c(OC)cc3NC(=O)c3cnc4ccccc4c3)cc1)CC2 [Tariquidar, reference compound]
- P-gp EC50 [1]: 4,0±0.2 nM
- EC50 [2]: > 0.5 µM
- Cytotoxicity (MTT) ([3]; 24 h): 8%
- Cytotoxicity (MTT) ([3]; 48 h): 19%
- EC50 [4]: > 0.08 µM
- fraction unbound [10]: 0.095
- Kd [10]: 64.7 µM
- EC50 [12]: 0.024 µM
- ATP-ase cell depletion [11]: 30%

SMILES: COc1cc(NC(=O)c2cnc3ccccc3c2)c(C(=O)Nc2ccc(CCN3CCc4cc(OCC[18F])c(OC)cc4C3)cc2)cc1OC [Formula 1b]
- Brain uptake (microPET) ([13]; P-gp knock-out mice (MDR 1a/b −/−)): same reduction of uptake at brain level
- Brain uptake (microPET) ([13]; wild type mice, co-injection of tariquidar): strongly reduced
- Brain uptake (microPET) ([13]; wild type mice, tracer alone): binding of radiolabeled compound of formula 1b at brain level
